For 18 compounds, IC50 results are on record in patent publication US12440484B2, “1,3,4-oxadiazole homophthalimide derivative compounds as histone deacetylase 6 inhibitor, and the pharmaceutical composition comprising the same” (Chong Kun Dang Pharmaceutical Corp., priority 2019, dated 2025).

Where only a bound is given, the exact number is not on record here.

In general, IC50 refers to the concentration at which inhibition is half-maximal.

For one assay, the target named is HDAC6 human recombinant (Homo sapiens (Human), UniProt Q9UBN7). In words: HDAC enzyme activity inhibition (in vitro), HDAC6 assay. The format is biochemical. As to conditions: samples at 0.1, 1, 10, 100 and 1000 nM; 37° C. 60 minutes; fluorescence Ex 390, Em 460.
A further assay concerns the target HDAC1 (Homo sapiens (Human), UniProt Q13547). In words: HDAC enzyme activity inhibition (in vitro), HDAC1 Fluorimetric Drug Discovery Assay Kit. Type of assay: biochemical. As to conditions: samples at 100, 1000 and 10000 nM; 37° C. 60 minutes; fluorescence Ex 390, Em 460.

Chain of HDAC1 (Q13547 whole entry): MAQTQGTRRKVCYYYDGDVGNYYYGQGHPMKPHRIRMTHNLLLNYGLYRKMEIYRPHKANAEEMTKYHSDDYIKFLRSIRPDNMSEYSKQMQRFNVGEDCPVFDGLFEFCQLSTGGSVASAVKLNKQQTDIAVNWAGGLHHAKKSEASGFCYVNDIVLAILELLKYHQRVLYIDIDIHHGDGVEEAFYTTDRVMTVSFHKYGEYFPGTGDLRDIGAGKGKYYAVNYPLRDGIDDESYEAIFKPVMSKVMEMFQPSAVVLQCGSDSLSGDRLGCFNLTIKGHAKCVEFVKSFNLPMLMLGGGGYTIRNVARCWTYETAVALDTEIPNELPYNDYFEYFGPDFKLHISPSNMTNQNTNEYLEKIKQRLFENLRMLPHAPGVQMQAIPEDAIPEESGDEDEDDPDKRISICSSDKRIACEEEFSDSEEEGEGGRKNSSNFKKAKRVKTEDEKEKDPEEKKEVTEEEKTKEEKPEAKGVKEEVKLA
Chain of HDAC6 human recombinant (Q9UBN7 whole entry): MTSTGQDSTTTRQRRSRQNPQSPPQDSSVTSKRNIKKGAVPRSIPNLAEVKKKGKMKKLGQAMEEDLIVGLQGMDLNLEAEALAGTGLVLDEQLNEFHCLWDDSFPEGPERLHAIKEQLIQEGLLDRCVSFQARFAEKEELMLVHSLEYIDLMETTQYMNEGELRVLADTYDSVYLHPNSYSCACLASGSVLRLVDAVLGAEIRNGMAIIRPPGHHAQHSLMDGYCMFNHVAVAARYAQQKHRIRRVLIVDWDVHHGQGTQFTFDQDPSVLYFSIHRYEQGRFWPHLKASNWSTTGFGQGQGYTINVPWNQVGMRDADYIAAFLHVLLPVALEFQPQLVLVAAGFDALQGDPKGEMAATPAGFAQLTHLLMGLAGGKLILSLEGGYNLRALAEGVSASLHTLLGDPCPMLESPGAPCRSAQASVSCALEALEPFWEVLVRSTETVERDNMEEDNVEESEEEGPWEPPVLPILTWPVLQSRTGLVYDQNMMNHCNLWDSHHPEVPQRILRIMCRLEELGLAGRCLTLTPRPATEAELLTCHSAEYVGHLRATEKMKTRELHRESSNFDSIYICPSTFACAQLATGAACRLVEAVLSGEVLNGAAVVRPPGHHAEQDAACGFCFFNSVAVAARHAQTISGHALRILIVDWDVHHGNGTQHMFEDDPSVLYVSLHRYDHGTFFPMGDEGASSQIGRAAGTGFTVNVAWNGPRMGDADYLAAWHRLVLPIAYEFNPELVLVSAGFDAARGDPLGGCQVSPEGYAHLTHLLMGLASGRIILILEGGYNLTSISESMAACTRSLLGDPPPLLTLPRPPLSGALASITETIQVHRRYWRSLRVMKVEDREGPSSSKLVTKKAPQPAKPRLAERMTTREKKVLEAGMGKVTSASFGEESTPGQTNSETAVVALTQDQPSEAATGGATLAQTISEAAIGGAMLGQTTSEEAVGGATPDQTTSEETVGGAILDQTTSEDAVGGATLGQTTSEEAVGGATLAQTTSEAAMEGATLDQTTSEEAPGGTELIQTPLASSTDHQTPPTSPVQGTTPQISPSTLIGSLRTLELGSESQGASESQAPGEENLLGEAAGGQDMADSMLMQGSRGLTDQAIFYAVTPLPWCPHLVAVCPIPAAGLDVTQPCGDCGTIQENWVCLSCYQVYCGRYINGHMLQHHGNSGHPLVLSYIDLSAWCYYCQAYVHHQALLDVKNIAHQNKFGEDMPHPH

For `CN1CCN(c2ccc3c(c2)C(C)(C)C(=O)N(Cc2ccc(-c4nnc(C(F)F)o4)cn2)C3=O)CC1` [Compound 29, 2-((5-(5-(difluoromethyl)-1,3,4-oxadiazole-2-yl)pyridine-2-yl)methyl)-4,4-dimethyl-6-(4-methylpiperazine-1-yl)isoquinoline-1,3(2H,4H)-dione], the IC50 at HDAC6 human recombinant is 18 nM; at HDAC1, greater than 10000 nM.
The corresponding values for `CC1(C)C(=O)N(Cc2ccc(-c3nnc(C(F)F)o3)cn2)C(=O)c2ccc(C3=CCN(C4COC4)CC3)cc21` [Compound 43, 2-((5-(5-(difluoromethyl)-1,3,4-oxadiazole-2-yl)pyridine-2-yl)methyl)-4,4-dimethyl-6-(1-(oxetan-3-yl)-1,2,3,6-tetrahydropyridine-4-yl)isoquinoline-1,3(2H,4H)-dione] are 38 nM and greater than 10000 nM.
The corresponding values for `CCN1CCC(c2ccc3c(c2)C(C)(C)C(=O)N(Cc2ccc(-c4nnc(C(F)F)o4)cn2)C3=O)CC1` [Compound 59, 2-((5-(5-(difluoromethyl)-1,3,4-oxadiazole-2-yl)pyridine-2-yl)methyl)-6-(1-ethylpiperidine-4-yl)-4,4-dimethylisoquinoline-1,3(2H,4H)-dione] are 56 nM and greater than 10000 nM.
The corresponding values for `CN(C)CCN(C)c1ccc2c(c1)C(C)(C)C(=O)N(Cc1ccc(-c3nnc(C(F)F)o3)cn1)C2=O` [Compound 38, 2-((5-(5-(difluoromethyl)-1,3,4-oxadiazole-2-yl)pyridine-2-yl)methyl)-6-((2-(dimethylamino)ethyl)(methyl)amino)-4,4-dimethylisoquinoline-1,3(2H,4H)-dione] are 24 nM and greater than 10000 nM.
For the compound `CC1(C)C(=O)N(Cc2ccc(-c3nnc(C(F)F)o3)cn2)C(=O)c2cc(-c3ccoc3)ccc21` [Compound 112, 2-((5-(5-(difluoromethyl)-1,3,4-oxadiazole-2-yl)pyridine-2-yl)methyl)-7-(furan-3-yl)-4,4-dimethylisoquinoline-1,3(2H,4H)-dione], the IC50 is 50 nM on HDAC6 human recombinant and greater than 10000 nM at HDAC1.
The corresponding values for `O=c1c2ccccc2n(Cc2ccc(-c3nnc(C(F)F)o3)cn2)c(=O)n1CCc1ccccc1` [Compound 77, 1-((5-(5-(difluoromethyl)-1,3,4-oxadiazole-2-yl)pyridine-2-yl)methyl)-3-phenethylquinazoline-2,4(1H,3H)-dione] are 141 nM and greater than 10000 nM.
Taken in the same sequence, the figures for `CN1CCC(Cn2c(=O)n(Cc3ccc(-c4nnc(C(F)F)o4)cn3)c(=O)c3ccccc32)CC1` [Compound 15, 3-((5-(5-(difluoromethyl)-1,3,4-oxadiazole-2-yl)pyridine-2-yl)methyl)-1-((1-methylpiperidine-4-yl)methyl)quinazoline-2,4(1H,3H)-dione] were 196 nM and greater than 10000 nM.
As to `O=c1[nH]c2ccccc2c(=O)n1Cc1ccc(-c2nnc(C(F)F)o2)cn1` [Compound 14, 3-((5-(5-(difluoromethyl)-1,3,4-oxadiazole-2-yl)pyridine-2-yl)methyl)quinazoline-2,4(1H,3H)-dione], the IC50 at HDAC6 human recombinant was 53 nM; at HDAC1, greater than 10000 nM.
The corresponding values for `CC1(C)C(=O)N(Cc2ccc(-c3nnc(C(F)F)o3)cn2)C(=O)c2ccc(N3CCN(C4CCC(F)(F)CC4)CC3)cc21` [Compound 150, 6-(4-(4,4-difluorocyclohexyl)piperazine-1-yl)-2-((5-(5-(difluoromethyl)-1,3,4-oxadiazole-2-yl)pyridine-2-yl)methyl)-4,4-dimethylisoquinoline-1,3(2H,4H)-dione] are 51 nM and greater than 10000 nM.
`CC1(C)C(=O)N(Cc2ccc(-c3nnc(C(F)F)o3)cn2)C(=O)c2ccc(-c3ccccc3F)cc21` [Compound 103, 2-((5-(5-(difluoromethyl)-1,3,4-oxadiazole-2-yl)pyridine-2-yl)methyl)-6-(2-fluorophenyl)-4,4-dimethylisoquinoline-1,3(2H,4H)-dione]: the IC50 on HDAC6 human recombinant is 59 nM; at HDAC1 it was greater than 10000 nM.
Taken in the same sequence, the figures for `CCCN1CCN(c2ccc3c(c2)C(C)(C)C(=O)N(Cc2ccc(-c4nnc(C(F)F)o4)cn2)C3=O)CC1` [Compound 148] were 32 nM and greater than 10000 nM.
The corresponding values for `CN(C)[C@H]1CCN(c2ccc3c(c2)C(C)(C)C(=O)N(Cc2ccc(-c4nnc(C(F)F)o4)cn2)C3=O)C1` [Compound 31, (S)-2-((5-(5-(difluoromethyl)-1,3,4-oxadiazole-2-yl)pyridine-2-yl)methyl)-6-(3-(dimethylamino)pyrrolidine-1-yl)-4,4-dimethylisoquinoline-1,3(2H,4H)-dione] are 29 nM and greater than 10000 nM.
Taken in the same sequence, the figures for `O=C1c2ccc(Br)cc2C2(CCC2)C(=O)N1Cc1ccc(-c2nnc(C(F)F)o2)cn1` [Compound 106, 6′-bromo-2′-((5-(5-(difluoromethyl)-1,3,4-oxadiazole-2-yl)pyridine-2-yl)methyl)-1′H-spiro[cyclobutane-1,4′-isoquinoline]-1′,3′(2′H)-dione] were 48 nM and greater than 10000 nM.
In the case of `CC1(C)C(=O)N(Cc2ccc(-c3nnc(C(F)F)o3)cn2)C(=O)c2cc(-c3ccco3)ccc21` [Compound 113, 2-((5-(5-(difluoromethyl)-1,3,4-oxadiazole-2-yl)pyridine-2-yl)methyl)-7-(furan-2-yl)-4,4-dimethylisoquinoline-1,3(2H,4H)-dione], the IC50 at HDAC6 human recombinant is 43 nM; on HDAC1, greater than 10000 nM.
As for `CC1(C)C(=O)N(Cc2ccc(-c3nnc(C(F)F)o3)cn2)C(=O)c2ccc(C3CCN(C4CCC4)CC3)cc21` [Compound 64, 6-(1-cyclobutylpiperidine-4-yl)-2-((5-(5-(difluoromethyl)-1,3,4-oxadiazole-2-yl)pyridine-2-yl)methyl)-4,4-dimethylisoquinoline-1,3(2H,4H)-dione], the IC50 was 25 nM at HDAC6 human recombinant and greater than 10000 nM against HDAC1.
Taken in the same sequence, the figures for `Cn1c(=O)n(Cc2ccc(-c3nnc(C(F)F)o3)cn2)c(=O)c2cc(-c3ccco3)ccc21` [Compound 87, 3-((5-(5-(difluoromethyl)-1,3,4-oxadiazole-2-yl)pyridine-2-yl)methyl)-6-(furan-2-yl)-1-methylquinazoline-2,4(1H,3H)-dione] were 23 nM and greater than 10000 nM.
Taken in the same sequence, the figures for `O=c1c2cc(F)ccc2n(CCN2CCCCC2)c(=O)n1Cc1ccc(-c2nnc(C(F)F)o2)cn1` [Compound 71, 3-((5-(5-(difluoromethyl)-1,3,4-oxadiazole-2-yl)pyridine-2-yl)methyl)-6-fluoro-1-(2-(piperidine-1-yl)ethyl)quinazoline-2,4(1H,3H)-dione] were 150 nM and greater than 10000 nM.
Consider `CC(C)CN1CCN(c2ccc3c(c2)C(C)(C)C(=O)N(Cc2ccc(-c4nnc(C(F)F)o4)cn2)C3=O)CC1` [Compound 149, 2-((5-(5-(difluoromethyl)-1,3,4-oxadiazole-2-yl)pyridine-2-yl)methyl)-6-(4-isobutylpiperazine-1-yl)-4,4-dimethylisoquinoline-1,3(2H,4H)-dione], for which the IC50 at HDAC6 human recombinant is 95 nM; on HDAC1 it was greater than 10000 nM.
